Values joined by “and” are separate entries in the source; they are usually repeats but may differ in a detail not shown here. Identical values can stand only once. Like-named read-outs stand apart in the source and are kept apart here.
Columns and labels:
[1] = In vitro BBB permeability study (Papp), hCMEC/D3 mono-culture BBB model; details: human
[2] = tested on: hCMEC/D3 mono-culture BBB model; test: as above
[3] = Permeability (Papp) across U251 mono-culture model; type: in vitro ADME, Homo sapiens; details: human, group U251 mono-culture, Figure 1F
U251 cells monolayer = test: Permeability (Papp) across U251 mono-culture model; type: in vitro ADME, Homo sapiens; details: group U251 mono-culture, Figure 1F; single replicate
[4] = BBB permeability in brain-specific Gdnf knockdown mice (brain distribution of fluorescein and FITC-Dex); details: Gdnf silencing (shGdnf) vs shNC mice; i.v., 30 min
[5] = Permeability (Papp) across the blank inserts; type: in vitro ADME; details: blank inserts (no cells), Figure 1F; for Papp at 30 min: not told
Method: Therefore, the subsequent experiments were all completed on day 6. The culture medium was removed from the apical and basolateral sides of the inserts and washed twice with preheated Hank’s balanced salt solution (HBSS). Fresh HBSS was then added to both the apical and basolateral chambers. […] Next, 200 μl aliquots were collected from the basolateral chamber after 30 min of incubation at 37°C. The concentrations of the tested agents in the basolateral chamber were measured.
The apparent permeability coefficient (Papp, cm/s) values of the tested agents across the in vitro BBB model were calculated using the equation ([Tavelin et al., 2002]):(1) Papp=(Q/1800)/(S×C0)
where S is the surface area of the insert membrane (0.33 cm^2 for 6.5 mm inserts, 4.46 cm^2 for 24 mm inserts), Q is the transported amount of the tested agents transported from the donor chamber to the receiver chamber for 30 min (1800 s), and C0 is the initial concentration of the tested agents in the donor chamber.

[6] = In vitro BBB permeability study (Papp), double co-culture with U251 cells (h+U); type: in vitro ADME, Homo sapiens; details: human, group h+U, Figure 1D/1E
[7] = tested on: double co-culture BBB model (hCMEC/D3 and U251 cells); test: as above; type: in vitro ADME, Homo sapiens; details: group h+U, Figure 1D/1E; single biological replicate; listed as NaF
[8] = In vitro BBB permeability study (Papp), double co-culture with SH-SY5Y cells (h+S); type: in vitro ADME, Homo sapiens; details: human, group h+S, Figure 1D/1E
[9] = tested on: double co-culture BBB model (hCMEC/D3 and SH-SY5Y cells); test: as above; type: in vitro ADME, Homo sapiens; details: group h+S, Figure 1D/1E; single biological replicate; listed as NaF
[10] = In vitro BBB permeability study (Papp), triple co-culture BBB model; details: human
[11] = tested on: triple co-culture BBB model (hCMEC/D3, U251 and SH-SY5Y cells); test: as above
[12] = mean of four replicates, read-out: Papp Mean
[13] = single replicate, read-out: Papp
[14] = single biological replicate, read-out: Papp

O=C1OC2(c3ccc(O)cc3Oc3cc(O)ccc32)c2ccccc21 [fluorescein, fluorescein sodium]
Papp A→B at 30 min ([1]; Papp Mean, Mono group, mean of 4, Figure 2R): 31.8 ×10⁻⁶ cm/s
Papp A→B at 30 min ([1]; Papp Mean, Mono group, mean of 4, Figure 2T): 30.4 ×10⁻⁶ cm/s
Papp A→B at 30 min ([1]; Papp Mean, group h, Figure 1D/1E, mean of four replicates): 32.2 ×10⁻⁶ cm/s
Papp A→B at 30 min ([1]; Papp Mean, group hCEMC/D3 mono-culture, Figure 1F, mean of four replicates): 35.7 ×10⁻⁶ cm/s
Papp A→B at 30 min ([1]; Papp(cm/s) Mean, Figure 2N, group GDNF+SPP, group mean): 24.5 ×10⁻⁶ cm/s
Papp A→B at 30 min ([1]; Papp(cm/s) Mean, Figure 2N, group GDNF, group mean): 19 ×10⁻⁶ cm/s
Papp A→B at 30 min ([1]; Papp(cm/s) Mean, Figure 2N, group Mono, group mean): 23.8 ×10⁻⁶ cm/s
Papp A→B at 30 min ([1]; Papp(cm/s) Mean, Figure 2P, group GDNF+PP2, group mean): 28.2 ×10⁻⁶ cm/s
Papp A→B at 30 min ([1]; Papp(cm/s) Mean, Figure 2P, group GDNF, group mean): 23.5 ×10⁻⁶ cm/s
Papp A→B at 30 min ([1]; Papp(cm/s) Mean, Figure 2P, group Mono, group mean): 30.8 ×10⁻⁶ cm/s
Papp A→B at 30 min ([1]; Papp(cm/s), Figure 2N, group GDNF+SPP, individual replicates): 26.5 ×10⁻⁶ cm/s
Papp A→B at 30 min ([1]; Papp(cm/s), Figure 2N, group GDNF, individual replicates): 19.4 ×10⁻⁶ cm/s
Papp A→B at 30 min ([1]; Papp(cm/s), Figure 2N, group Mono, individual replicates): 21.9 ×10⁻⁶ cm/s
Papp A→B at 30 min ([1]; Papp(cm/s), Figure 2P, group GDNF+PP2, individual replicates): 27.5 ×10⁻⁶ cm/s
Papp A→B at 30 min ([1]; Papp(cm/s), Figure 2P, group GDNF, individual replicates): 23.6 ×10⁻⁶ cm/s
Papp A→B at 30 min ([1]; Papp(cm/s), Figure 2P, group Mono, individual replicates): 31 ×10⁻⁶ cm/s
Papp A→B at 30 min ([1]; Papp(cm/s), group h, Figure 1D/1E, single biological replicate): 31.7 ×10⁻⁶ cm/s
Papp A→B at 30 min ([1]; Papp(cm/s), group hCEMC/D3 mono-culture, Figure 1F, single replicate): 36.2 ×10⁻⁶ cm/s
Papp A→B at 30 min ([1]; Papp, Mono group, single replicates, Figure 2R): 30.7 ×10⁻⁶ cm/s
Papp A→B at 30 min ([1]; Papp, Mono group, single replicates, Figure 2T): 30.8 ×10⁻⁶ cm/s
Papp A→B ([2]; read-out: Papp(cm/s), Figure 2N, group GDNF+SPP, individual replicates): 22 ×10⁻⁶ cm/s and 26.7 ×10⁻⁶ cm/s
Papp A→B ([2]; read-out: Papp(cm/s), Figure 2N, group GDNF, individual replicates): 17.7 ×10⁻⁶ cm/s and 20.6 ×10⁻⁶ cm/s and 18.3 ×10⁻⁶ cm/s
Papp A→B ([2]; read-out: Papp(cm/s), Figure 2N, group Mono, individual replicates): 24.3 ×10⁻⁶ cm/s and 25.1 ×10⁻⁶ cm/s and 23.7 ×10⁻⁶ cm/s
Papp A→B ([2]; read-out: Papp(cm/s), Figure 2P, group GDNF+PP2, individual replicates): 28.3 ×10⁻⁶ cm/s
Papp A→B ([2]; read-out: Papp(cm/s), Figure 2P, group GDNF, individual replicates): 23.3 ×10⁻⁶ cm/s (2×) and 23.8 ×10⁻⁶ cm/s
Papp A→B ([2]; read-out: Papp(cm/s), Figure 2P, group Mono, individual replicates): 30.5 ×10⁻⁶ cm/s and 31.5 ×10⁻⁶ cm/s and 30.3 ×10⁻⁶ cm/s
Papp A→B ([2]; read-out: Papp(cm/s), group h, Figure 1D/1E, single biological replicate, listed as NaF): 32 ×10⁻⁶ cm/s and 32.7 ×10⁻⁶ cm/s and 32.5 ×10⁻⁶ cm/s
Papp A→B ([2]; read-out: Papp(cm/s), group hCEMC/D3 mono-culture, Figure 1F, single replicate): 35.9 ×10⁻⁶ cm/s and 34.8 ×10⁻⁶ cm/s and 36 ×10⁻⁶ cm/s
Papp A→B ([2]; read-out: Papp, Mono group, single replicates, Figure 2R): 31.7 ×10⁻⁶ cm/s and 33.3 ×10⁻⁶ cm/s and 31.4 ×10⁻⁶ cm/s
Papp A→B ([2]; read-out: Papp, Mono group, single replicates, Figure 2T): 29.5 ×10⁻⁶ cm/s and 30.3 ×10⁻⁶ cm/s
Papp A→B at 30 min [3, 12]: 30.6 ×10⁻⁶ cm/s
Papp A→B at 30 min [3, 13]: 29.5 ×10⁻⁶ cm/s
Papp A→B (U251 cells monolayer): 30.6 ×10⁻⁶ cm/s and 31.9 ×10⁻⁶ cm/s and 30.2 ×10⁻⁶ cm/s
brain-to-plasma concentration ratios [4]: notable increases
Papp ([5]; single replicate): 72.71 ×10⁻⁶ cm/s and 72.14 ×10⁻⁶ cm/s and 72.59 ×10⁻⁶ cm/s
Papp at 30 min [5, 12]: 71.6 ×10⁻⁶ cm/s
Papp at 30 min [5, 13]: 68.7 ×10⁻⁶ cm/s
Papp A→B at 30 min [6, 12]: 29.1 ×10⁻⁶ cm/s
Papp A→B at 30 min [6, 14]: 28.2 ×10⁻⁶ cm/s
Papp A→B [7]: 30.2 ×10⁻⁶ cm/s and 29.6 ×10⁻⁶ cm/s and 28.1 ×10⁻⁶ cm/s
Papp A→B at 30 min [8, 12]: 27.8 ×10⁻⁶ cm/s
Papp A→B at 30 min [8, 14]: 29.4 ×10⁻⁶ cm/s
Papp A→B [9]: 29.1 ×10⁻⁶ cm/s and 23.2 ×10⁻⁶ cm/s and 29.5 ×10⁻⁶ cm/s
Papp A→B at 30 min ([10]; Papp Mean, Triple group, mean of 4, Figure 2R): 25 ×10⁻⁶ cm/s
Papp A→B at 30 min ([10]; Papp Mean, Triple group, mean of 4, Figure 2T): 20.5 ×10⁻⁶ cm/s
Papp A→B at 30 min ([10]; Papp Mean, Triple+PP2 group, mean of 4, Figure 2T): 27.5 ×10⁻⁶ cm/s
Papp A→B at 30 min ([10]; Papp Mean, Triple+SPP group, mean of 4, Figure 2R): 30 ×10⁻⁶ cm/s
Papp A→B at 30 min ([10]; Papp Mean, group h+S+U, Figure 1D/1E, mean of four replicates): 24.9 ×10⁻⁶ cm/s
Papp A→B at 30 min ([10]; Papp(cm/s), group h+S+U, Figure 1D/1E, single biological replicate): 26.1 ×10⁻⁶ cm/s
Papp A→B at 30 min ([10]; Papp, Triple group, single replicates, Figure 2R): 25.3 ×10⁻⁶ cm/s
Papp A→B at 30 min ([10]; Papp, Triple group, single replicates, Figure 2T): 21.5 ×10⁻⁶ cm/s
Papp A→B at 30 min ([10]; Papp, Triple+PP2 group, single replicates, Figure 2T): 28.2 ×10⁻⁶ cm/s
Papp A→B at 30 min ([10]; Papp, Triple+SPP group, single replicates, Figure 2R): 30.6 ×10⁻⁶ cm/s
Papp A→B ([11]; read-out: Papp(cm/s), group h+S+U, Figure 1D/1E, single biological replicate, listed as NaF): 26.4 ×10⁻⁶ cm/s and 23.5 ×10⁻⁶ cm/s and 23.6 ×10⁻⁶ cm/s
Papp A→B ([11]; read-out: Papp, Triple group, single replicates, Figure 2R): 24.7 ×10⁻⁶ cm/s and 24.9 ×10⁻⁶ cm/s and 25 ×10⁻⁶ cm/s
Papp A→B ([11]; read-out: Papp, Triple group, single replicates, Figure 2T): 20.2 ×10⁻⁶ cm/s and 20.5 ×10⁻⁶ cm/s and 19.8 ×10⁻⁶ cm/s
Papp A→B ([11]; read-out: Papp, Triple+PP2 group, single replicates, Figure 2T): 26.4 ×10⁻⁶ cm/s
Papp A→B ([11]; read-out: Papp, Triple+SPP group, single replicates, Figure 2R): 29.1 ×10⁻⁶ cm/s and 30.2 ×10⁻⁶ cm/s

From paper PMC11524583, “Neurons enhance blood–brain barrier function via upregulating claudin-5 and VE-cadherin expression due to glial cell line-derived neurotrophic factor secretion” (eLife, 2024)
